The values that follow come from PMC8401035, “Synthesis and In Vitro Characterization of Glycopeptide Drug Candidates Related to PACAP1–23” (Molecules, 2021).

Test [1] concerns the target T1, human PAC1 (Homo sapiens, UniProt P41586).
T1 construct: 3xHA (N)
T1 sequence (P41586 21-468): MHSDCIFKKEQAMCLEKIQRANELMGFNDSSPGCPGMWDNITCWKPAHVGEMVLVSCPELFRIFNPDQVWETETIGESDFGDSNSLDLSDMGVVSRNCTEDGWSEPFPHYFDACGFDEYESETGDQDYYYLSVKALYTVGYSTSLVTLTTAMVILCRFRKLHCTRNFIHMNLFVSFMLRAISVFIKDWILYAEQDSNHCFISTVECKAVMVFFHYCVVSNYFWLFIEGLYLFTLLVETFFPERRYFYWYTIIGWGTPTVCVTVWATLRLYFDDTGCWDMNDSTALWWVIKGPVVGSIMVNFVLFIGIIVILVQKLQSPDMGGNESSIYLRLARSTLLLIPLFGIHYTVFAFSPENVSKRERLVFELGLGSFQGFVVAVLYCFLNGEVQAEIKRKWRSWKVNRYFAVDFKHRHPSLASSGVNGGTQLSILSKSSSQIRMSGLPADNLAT
The test is described as follows: cAMP accumulation assay in PAC1-CHO cells. The test is classed as cell-based. To be noted: for EC50: cAMP stimulation, CHO cells stably expressing human PAC1, 500 μM IBMX, 10 min agonist at 37 °C, 3H-cAMP/PKA competition read-out, Table 3, control has two values (two experiments). The protocol:
In Vitro cAMP Accumulation
(§1) DMEM:F12 (1:1)medium, incubated
(§2) Serial dilutions of different

Test [2] concerns the target T2, human VPAC2 (Homo sapiens, UniProt P41587).
T2 construct: 3xHA (N)
T2 sequence (P41587 24-438): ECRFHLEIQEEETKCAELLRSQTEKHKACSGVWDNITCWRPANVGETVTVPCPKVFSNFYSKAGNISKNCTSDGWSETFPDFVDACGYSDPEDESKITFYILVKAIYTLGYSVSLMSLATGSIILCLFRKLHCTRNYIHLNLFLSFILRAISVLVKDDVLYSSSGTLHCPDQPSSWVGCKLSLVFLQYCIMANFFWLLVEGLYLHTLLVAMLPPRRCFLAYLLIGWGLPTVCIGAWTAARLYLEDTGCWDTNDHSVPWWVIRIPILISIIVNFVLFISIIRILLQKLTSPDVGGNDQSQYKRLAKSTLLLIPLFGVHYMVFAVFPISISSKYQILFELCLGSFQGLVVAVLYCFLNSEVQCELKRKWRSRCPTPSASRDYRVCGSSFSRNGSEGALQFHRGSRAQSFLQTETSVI
Briefly: cAMP accumulation assay in VPAC2-CHO cells. Format: cell-based. As for the experimental part: as §1, §2

Test [3] concerns the target T3, human VPAC1 (Homo sapiens, UniProt P32241).
T3 sequence (P32241 31-457): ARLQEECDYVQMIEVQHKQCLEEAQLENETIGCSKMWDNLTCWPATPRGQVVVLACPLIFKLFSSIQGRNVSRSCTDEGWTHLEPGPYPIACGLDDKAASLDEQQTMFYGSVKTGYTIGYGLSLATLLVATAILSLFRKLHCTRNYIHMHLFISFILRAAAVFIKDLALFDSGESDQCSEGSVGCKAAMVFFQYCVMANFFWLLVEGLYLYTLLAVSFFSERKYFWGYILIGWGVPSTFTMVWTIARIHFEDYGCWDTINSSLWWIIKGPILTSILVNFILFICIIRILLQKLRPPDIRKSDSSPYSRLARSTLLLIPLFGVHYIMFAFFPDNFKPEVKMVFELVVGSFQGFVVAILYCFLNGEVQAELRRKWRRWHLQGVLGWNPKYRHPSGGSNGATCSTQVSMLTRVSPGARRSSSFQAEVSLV
Briefly: cAMP accumulation assay in VPAC1-CHO cells. To be noted: for Emax: read-out: VPAC1 EMAX.

The mark [4] stands for this setting: HA-VPAC2-CHO passage #28, 20,000 cells/well, dilutions from 10 uM, single experiment in duplicate, supplement page S13, read-out: VPAC2-CHO EC50(nM), supplement curve fit.
Where [5] appears, read: cAMP stimulation, CHO cells stably expressing human VPAC2, 500 μM IBMX, 10 min agonist at 37 °C, Table 3, NC = No convergence, read-out: VPAC2 EC50.

Read-outs that look alike come from different tables or passages of the source. Non-standard residues stand in square brackets, D forms with d. Residues, ends and D or L forms follow the SMILES beside them. *: point of attachment. X1 = OC[C@H]1O[C@@H](O[C@H]2[C@H](O)[C@@H](O)[C@H](*)O[C@@H]2CO)[C@H](O)[C@@H](O)[C@H]1O; Nva = CCC[C@H](N)C(=O)O; Sar = CNCC(=O)O

Take `CCC[C@H](NC(=O)[C@H](CCC(N)=O)NC(=O)[C@H](CCCCN)NC(=O)[C@H](CCCNC(=N)N)NC(=O)[C@H](Cc1ccc(O)cc1)NC(=O)[C@H](CCCNC(=N)N)NC(=O)[C@H](CO)NC(=O)[C@H](Cc1ccc(O)cc1)NC(=O)[C@H](CO)NC(=O)[C@H](CC(=O)O)NC(=O)[C@@H](NC(=O)[C@H](Cc1ccccc1)NC(=O)[C@@H](NC(=O)CNC(=O)[C@H](CC(=O)O)NC(=O)[C@H](CO)NC(=O)[C@@H](N)Cc1c[nH]cn1)[C@@H](C)CC)[C@@H](C)O)C(=O)N[C@@H](C)C(=O)N[C@H](C(=O)N[C@@H](CCCCN)C(=O)N[C@@H](CCCCN)C(=O)N[C@@H](Cc1ccc(O)cc1)C(=O)N[C@@H](CC(C)C)C(=O)N[C@@H](CO)C(N)=O)C(C)C` [Compound 1]: the Emax in test [1] was 198%; in test [2], 111%; in test [3], 42%. The values for the EC50 in test [1], in test [2] (setting [4]) and in test [3] were 2.2 nM, 576 nM and 5.2 nM, respectively.

`CCC[C@H](NC(=O)[C@H](CCC(N)=O)NC(=O)[C@H](CCCCN)NC(=O)[C@H](CCCNC(=N)N)NC(=O)[C@H](Cc1ccc(O)cc1)NC(=O)[C@H](CCCNC(=N)N)NC(=O)[C@H](CO)NC(=O)[C@H](Cc1ccc(O)cc1)NC(=O)[C@H](CO)NC(=O)[C@H](CC(=O)O)NC(=O)[C@@H](NC(=O)[C@H](Cc1ccccc1)NC(=O)[C@@H](NC(=O)CNC(=O)[C@H](CC(=O)O)NC(=O)[C@H](CO)NC(=O)[C@@H](N)Cc1c[nH]cn1)[C@@H](C)CC)[C@@H](C)O)C(=O)N[C@@H](C)C(=O)N[C@H](C(=O)N[C@@H](CCCCN)C(=O)N[C@@H](CCCCN)C(=O)N[C@@H](Cc1ccc(O)cc1)C(=O)N[C@@H](CC(C)C)C(=O)N[C@@H](CO[C@@H]1O[C@H](CO)[C@@H](O)[C@H](O)[C@H]1O)C(N)=O)C(C)C` [Compound 2]: the values for the maximal response (Emax) in test [1], in test [2] and in test [3] were 181%, 110% and 104%, respectively. Besides, the figures for the EC50 in test [1], in test [2] (setting [4]) and in test [3] were 0.64 nM, 577 nM and 37 nM, respectively. The “selectivity for PAC1 over VPAC1” value in test [1] (ratio of cAMP EC50 values (VPAC1/PAC1)) is on record as ~ 58 fold. Moreover, in test [1] (ratio of cAMP EC50 values (VPAC2/PAC1)), the “selectivity for PAC1 over VPAC2” value is recorded as ~ 886 fold.

For `CCC[C@H](NC(=O)[C@H](CCC(N)=O)NC(=O)[C@H](CCCCN)NC(=O)[C@H](CCCNC(=N)N)NC(=O)[C@H](Cc1ccc(O)cc1)NC(=O)[C@H](CCCNC(=N)N)NC(=O)[C@H](CO)NC(=O)[C@H](Cc1ccc(O)cc1)NC(=O)[C@H](CO)NC(=O)[C@H](CC(=O)O)NC(=O)[C@@H](NC(=O)[C@H](Cc1ccccc1)NC(=O)[C@@H](NC(=O)CNC(=O)[C@H](CC(=O)O)NC(=O)[C@H](CO)NC(=O)[C@@H](N)Cc1c[nH]cn1)[C@@H](C)CC)[C@@H](C)O)C(=O)N[C@@H](C)C(=O)N[C@H](C(=O)N[C@@H](CCCCN)C(=O)N[C@@H](CCCCN)C(=O)N[C@@H](Cc1ccc(O)cc1)C(=O)N[C@@H](CC(C)C)C(=O)N[C@@H](CO[C@@H]1O[C@H](CO)[C@@H](O)[C@H](O)[C@H]1O)C(=O)N[C@@H](CO[C@@H]1O[C@H](CO)[C@@H](O)[C@H](O)[C@H]1O)C(N)=O)C(C)C` [Compound 3], the maximal response (Emax) in test [1] was determined as 152%; in test [2], 128%; in test [3] it was 147%. The 50% effective concentration (EC50) turned out to be 1.9 nM in test [1], 7370 nM in test [2] (setting [5]) and 26 nM in test [3].

In the case of `CCC[C@H](NC(=O)[C@H](CCC(N)=O)NC(=O)[C@H](CCCCN)NC(=O)[C@H](CCCNC(=N)N)NC(=O)[C@H](Cc1ccc(O)cc1)NC(=O)[C@H](CCCNC(=N)N)NC(=O)[C@H](CO)NC(=O)[C@H](Cc1ccc(O)cc1)NC(=O)[C@H](CO)NC(=O)[C@H](CC(=O)O)NC(=O)[C@@H](NC(=O)[C@H](Cc1ccccc1)NC(=O)[C@@H](NC(=O)CNC(=O)[C@H](CC(=O)O)NC(=O)[C@H](CO)NC(=O)[C@@H](N)Cc1c[nH]cn1)[C@@H](C)CC)[C@@H](C)O)C(=O)N[C@@H](C)C(=O)N[C@H](C(=O)N[C@@H](CCCCN)C(=O)N[C@@H](CCCCN)C(=O)N[C@@H](Cc1ccc(O)cc1)C(=O)N[C@@H](CC(C)C)C(=O)N[C@@H](CO[C@@H]1O[C@H](CO)[C@@H](O[C@@H]2O[C@H](CO)[C@H](O)[C@H](O)[C@H]2O)[C@H](O)[C@H]1O)C(N)=O)C(C)C` [Compound 4], the maximal effect (Emax) came to 174% in test [1], 169% in test [2] and 118% in test [3]. In addition, the concentration for a half-maximal effect (EC50) in test [1] came out at 1.8 nM; in test [2] (setting [5]), 1940 nM; in test [3], 21 nM.

For `CCC[C@H](NC(=O)[C@H](CCC(N)=O)NC(=O)[C@H](CCCCN)NC(=O)[C@H](CCCNC(=N)N)NC(=O)[C@H](Cc1ccc(O)cc1)NC(=O)[C@H](CCCNC(=N)N)NC(=O)[C@H](CO)NC(=O)[C@H](Cc1ccc(O)cc1)NC(=O)[C@H](CO)NC(=O)[C@H](CC(=O)O)NC(=O)[C@@H](NC(=O)[C@H](Cc1ccccc1)NC(=O)[C@@H](NC(=O)[C@H](C)NC(=O)[C@H](CC(=O)O)NC(=O)[C@H](CO)NC(=O)[C@@H](N)Cc1c[nH]cn1)[C@@H](C)CC)[C@@H](C)O)C(=O)N[C@@H](C)C(=O)N[C@H](C(=O)N[C@@H](CCCCN)C(=O)N[C@@H](CCCCN)C(=O)N[C@@H](Cc1ccc(O)cc1)C(=O)N[C@@H](CC(C)C)C(=O)N[C@@H](CO[C@@H]1O[C@H](CO)[C@@H](O[C@@H]2O[C@H](CO)[C@H](O)[C@H](O)[C@H]2O)[C@H](O)[C@H]1O)C(N)=O)C(C)C` [Compound 5], the results for the Emax in test [1], in test [2] and in test [3] were 181%, 139% and 124%, respectively. Moreover, the half-maximal effective concentration (EC50) in test [1] was found to be 7 nM; in test [2] (setting [5]), 321 nM; in test [3], 38 nM.

As to `CCC[C@H](NC(=O)[C@H](CCC(N)=O)NC(=O)[C@H](CCCCN)NC(=O)[C@H](CCCNC(=N)N)NC(=O)[C@H](Cc1ccc(O)cc1)NC(=O)[C@H](CCCNC(=N)N)NC(=O)[C@H](CO)NC(=O)[C@H](Cc1ccc(O)cc1)NC(=O)[C@H](CO)NC(=O)[C@H](CC(=O)O)NC(=O)[C@@H](NC(=O)[C@H](Cc1ccccc1)NC(=O)[C@@H](NC(=O)CN(C)C(=O)[C@H](CC(=O)O)NC(=O)[C@H](CO)NC(=O)[C@@H](N)Cc1c[nH]cn1)[C@@H](C)CC)[C@@H](C)O)C(=O)N[C@@H](C)C(=O)N[C@H](C(=O)N[C@@H](CCCCN)C(=O)N[C@@H](CCCCN)C(=O)N[C@@H](Cc1ccc(O)cc1)C(=O)N[C@@H](CC(C)C)C(=O)N[C@@H](CO[C@@H]1O[C@H](CO)[C@@H](O[C@@H]2O[C@H](CO)[C@H](O)[C@H](O)[C@H]2O)[C@H](O)[C@H]1O)C(N)=O)C(C)C` [Compound 6] (H-HSD[Sar]IFTDSYSRYRKQ[Nva]AVKKYLS(X1)-NH2), in test [1], the Emax worked out at 134% and the EC50 was 67 nM. Further, in test [3], the concentration for a half-maximal effect (EC50) amounted to 195 nM and the Emax came to 107%.
